{"source": "paper PMC7312527", "about": "(International Journal of Molecular Sciences, 2020)", "key": {"[1]": {"system": "histone H3 phosphorylation (Ser10) in human astrocytes", "experiment": "Global histone H3 phosphorylation (Ser10) colorimetric assay", "assay_type": "cell-based", "details": "for amount of phosphorylated H3Ser10 / phosphorylation of H3Ser10 in comparison to 100% control: 24 h", "protocol": "Cell culture: Human astrocytes (HA, Sciencell, USA) were grown in the Astrocyte Cell Medium (Sciencell) supplemented with 2% fetal bovine serum (Sciencell), 1% Astrocyte Cell Growth Supplement (Sciencell), and 1% penicillin/streptomycin solution (Sciencell). Cells were cultured in the incubator at 37 °C and 5% CO2. To start the experiment, cells were seeded at the density of 1.5 × 10^6 cells/well in the flasks and were kept in the incubator (37 °C, 5% CO2) for 24 h. After the incubation period, the medium was removed. Then, the cells were exposed to compound 3c (1 µM and 0.025 µM) or nothing but control medium for 24 h. Then, cells were collected and histone extracts from them were prepared.\nThe levels of histone H3 phosphorylation (Ser10) were determined using a Global Histone H3 phosphorylation (Ser10) colorimetric assay kit (Epigentek) according to the manufacturer’s instructions. In the assay, the phosphorylated histone H3 at ser10 is captured in the wells of a 96-well plate coated with an anti-phospho histone H3 antibody. The captured phosphorylated histone H3 (Ser10) is detected with a labeled detection antibody followed by a color development reagent. […]"}, "[2]": {"target": "T1, AChE–BACE-1A protein pair (Homo sapiens, UniProt P22303+P56817)", "T1 construct": "pGBKT7-hAChE plasmid contained the cDNA fragment encoding for aa 52–577; N-terminal domain (aa 46–457) of BACE1A (GenBank: AF204943.1); host or cells: Saccharomyces cerevisiae Y2HGold (bait) mated with Y187 (prey)", "T1 sequence (P22303 52-577)": "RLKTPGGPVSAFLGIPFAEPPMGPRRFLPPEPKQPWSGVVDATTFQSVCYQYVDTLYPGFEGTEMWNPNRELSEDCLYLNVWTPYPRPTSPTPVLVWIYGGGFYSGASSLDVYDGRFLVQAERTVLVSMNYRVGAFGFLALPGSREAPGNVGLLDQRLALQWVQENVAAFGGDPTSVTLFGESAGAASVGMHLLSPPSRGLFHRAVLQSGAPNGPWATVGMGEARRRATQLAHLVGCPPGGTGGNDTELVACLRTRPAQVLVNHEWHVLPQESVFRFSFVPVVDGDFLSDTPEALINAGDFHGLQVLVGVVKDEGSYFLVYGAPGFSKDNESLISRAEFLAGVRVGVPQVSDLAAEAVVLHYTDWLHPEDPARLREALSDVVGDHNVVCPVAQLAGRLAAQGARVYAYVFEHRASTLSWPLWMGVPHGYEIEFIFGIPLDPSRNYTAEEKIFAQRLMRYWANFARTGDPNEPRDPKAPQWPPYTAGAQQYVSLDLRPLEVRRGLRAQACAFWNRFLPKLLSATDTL", "T1 sequence (P56817 46-457)": "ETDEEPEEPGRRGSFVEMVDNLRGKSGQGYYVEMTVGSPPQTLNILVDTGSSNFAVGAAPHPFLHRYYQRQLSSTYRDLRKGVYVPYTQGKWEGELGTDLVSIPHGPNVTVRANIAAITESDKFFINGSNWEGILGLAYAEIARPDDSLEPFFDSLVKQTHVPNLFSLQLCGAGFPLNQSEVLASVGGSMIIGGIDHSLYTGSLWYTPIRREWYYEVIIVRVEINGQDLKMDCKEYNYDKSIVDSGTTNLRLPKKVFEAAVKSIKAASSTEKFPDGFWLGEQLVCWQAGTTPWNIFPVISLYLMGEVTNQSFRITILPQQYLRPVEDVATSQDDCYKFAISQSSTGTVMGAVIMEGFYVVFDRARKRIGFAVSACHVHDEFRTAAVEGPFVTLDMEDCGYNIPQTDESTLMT", "experiment": "Yeast three-hybrid (Y3H) test and β-galactosidase assay, AChE–BACE-1A", "assay_type": "cell-based", "protocol": "The putative induction of interactions between hybrid ligands and five selected proteins was evaluated by the Y3H method. […]. The company maintained cDNA synthesis and cloning of inserts in a proper frame, such as the NdeI/BamHI fragments into the pGBKT7 (AChE) or pGADT7 (A4, BACE1A, MAO B, MAPT) vectors. Moreover, the yeast codon optimization was realized to facilitate the high expression of human recombinant proteins in Saccharomyces cerevisiae. The cDNA encoding for human AChE (GenBank M55040.1) was modified by removing the fragments for a signal peptide (aa 1–51) and the domain responsible for protein tetramerization (aa 578–611). […]\nThe putative protein–protein interactions between bait (AChE) and the four preys (A4, BACE1A, MAO B, and MAPT) were analyzed by the small-scale mating procedure (5mL) based on the Matchmaker Gold yeast two-hybrid system manual recommendations. […]\nThe yeast β-galactosidase assay kit (ThermoFisher Scientific, USA) was applied to quantitatively analyze the strength of the hybrid-ligand induced interactions.\nTo evaluate the β-galactosidase activity in the yeast culture, the yeast β-galactosidase microplate assay protocol (stopped) was used according to the manufacturer’s instructions. […] The optical densities at 660 nm and absorbance at 420 nm were evaluated by (Synergy H1, Biotek). In the quantitative β-galactosidase assay, the hybrid ligand 3c was used. […]"}, "[3]": {"system": "SH-SY5Y cells", "experiment": "Neuroprotection against rotenone/oligomycin A, co-incubation (MTT)", "assay_type": "cell-based, human", "details": "R/O mixture"}, "[4]": {"target": "BuChE from equine serum (Equus caballus, UniProt P81908)", "sequence (P81908 whole entry)": "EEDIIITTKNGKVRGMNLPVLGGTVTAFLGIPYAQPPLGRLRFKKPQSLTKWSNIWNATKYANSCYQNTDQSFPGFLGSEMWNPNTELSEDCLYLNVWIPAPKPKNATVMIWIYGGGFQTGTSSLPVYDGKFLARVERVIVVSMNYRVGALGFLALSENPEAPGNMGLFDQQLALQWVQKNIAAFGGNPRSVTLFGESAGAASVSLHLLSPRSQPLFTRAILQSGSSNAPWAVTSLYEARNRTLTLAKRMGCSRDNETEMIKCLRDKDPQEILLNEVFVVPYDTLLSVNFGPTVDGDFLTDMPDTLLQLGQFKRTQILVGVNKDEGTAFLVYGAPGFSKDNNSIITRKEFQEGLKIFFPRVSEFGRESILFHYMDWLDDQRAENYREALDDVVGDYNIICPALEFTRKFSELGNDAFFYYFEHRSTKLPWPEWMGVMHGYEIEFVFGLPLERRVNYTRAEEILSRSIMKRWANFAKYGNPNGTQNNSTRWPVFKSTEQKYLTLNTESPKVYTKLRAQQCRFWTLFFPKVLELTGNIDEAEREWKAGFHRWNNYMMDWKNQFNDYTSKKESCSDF", "experiment": "biochemical"}, "[5]": {"target": "EeAChE (Electrophorus electricus, UniProt O42275)", "sequence (O42275 24-633)": "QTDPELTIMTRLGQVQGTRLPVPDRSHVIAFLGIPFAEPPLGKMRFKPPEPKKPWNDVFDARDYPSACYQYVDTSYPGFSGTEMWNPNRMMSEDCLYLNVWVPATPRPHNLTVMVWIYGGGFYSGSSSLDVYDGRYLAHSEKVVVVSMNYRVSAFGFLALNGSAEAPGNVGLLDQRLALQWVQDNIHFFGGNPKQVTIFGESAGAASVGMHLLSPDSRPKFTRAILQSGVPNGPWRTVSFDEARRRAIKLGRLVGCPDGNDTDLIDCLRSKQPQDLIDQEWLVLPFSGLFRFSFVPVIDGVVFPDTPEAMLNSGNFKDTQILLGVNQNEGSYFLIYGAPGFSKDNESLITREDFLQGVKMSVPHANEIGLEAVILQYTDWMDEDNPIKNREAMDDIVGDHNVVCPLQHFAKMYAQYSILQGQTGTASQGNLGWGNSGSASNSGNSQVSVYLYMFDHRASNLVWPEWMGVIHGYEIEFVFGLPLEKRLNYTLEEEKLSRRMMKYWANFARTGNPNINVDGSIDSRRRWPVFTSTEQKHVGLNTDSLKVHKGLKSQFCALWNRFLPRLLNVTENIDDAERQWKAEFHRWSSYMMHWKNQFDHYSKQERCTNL", "experiment": "Kinetic characterization of EeAChE inhibition (Lineweaver–Burk plot)", "assay_type": "biochemical", "details": "inhibitor 25, 75, 100 nM", "protocol": "Compound 3e was selected and kinetic studies were performed similar to the enzyme inhibition assay. […]. 0.05–0.5 mM). All processes were assayed in triplicate."}, "[6]": {"target": "T2, Amyloid β peptide (1–42) (Aβ42) (Homo sapiens, UniProt P05067)", "T2 construct": "Amyloid β peptide (1–42) (Aβ42) was purchased from Sigma Aldrich; purchased Sigma Aldrich", "T2 sequence (P05067 672-713 limits assumed)": "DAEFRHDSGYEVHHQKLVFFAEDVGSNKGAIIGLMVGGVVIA", "experiment": "Inhibition of self-induced Aβ42 aggregation (thioflavin-T assay)", "assay_type": "biochemical"}}}
{"smiles": "O=C(NCCCCNc1c2c(nc3ccccc13)CCCC2)c1cc(Cl)cc(Cl)c1", "note": "[Compound 3c]", "values": [{"measurement": "amount of phosphorylated H3Ser10", "setting": "[1]; 0.025 µM", "result": 28.26, "unit": "µg/mg"}, {"measurement": "phosphorylation of H3Ser10 in comparison to 100% control", "setting": "[1]; 0.025 µM", "result": 105.64, "unit": "%"}, {"measurement": "DNA damage", "setting": "[1]; 1 µM and 0.025 µM", "result": "not observed"}, {"measurement": "amount of phosphorylated H3Ser10", "setting": "[1]; 1 µM", "result": 29.08, "unit": "µg/mg"}, {"measurement": "phosphorylation of H3Ser10 in comparison to 100% control", "setting": "[1]; 1 µM", "result": 108.69, "unit": "%"}, {"measurement": "hybrid ligand-mediated interaction AChE–BACE-1A (colonies on DDO/X/A plates)", "setting": "[2]; 10 µM hybrid ligand", "result": "interaction between AChE and BACE-1 is mediated by hybrid ligand 3c"}, {"measurement": "activity of β-galactosidase", "setting": "[2]; AChE–BACE-1A, 10 μM ligand, yeast grown 96 h", "result": "88.69 ± 2.57", "unit": "units"}, {"measurement": "neuroprotection", "setting": "[3]; 0.0001 µM", "result": 29.10, "unit": "%"}, {"measurement": "neuroprotection", "setting": "[3]; 0.001 µM", "result": 22.11, "unit": "%"}, {"measurement": "neuroprotection", "setting": "[3]; 0.01 µM", "result": 12.90, "unit": "%"}, {"measurement": "neuroprotection", "setting": "[3]; 0.1 µM", "result": 10.99, "unit": "%"}, {"measurement": "Selectivity for BuChE", "setting": "[4]; IC50(AChE)/IC50(BuChE)", "result": 0.206}, {"measurement": "IC50", "setting": "[4]; means ± SD of three independent experiments, read-out: EqBuChE IC50 ± SD", "result": "0.123 ± 0.011", "unit": "µM"}, {"measurement": "inhibition type of EeAChE", "setting": "[5]", "result": "mixed-type inhibition"}, {"measurement": "Inhibition of Aβ aggregation", "setting": "[6]; 5 µM", "result": 23, "unit": "%"}, {"measurement": "inhibition at 5 µM", "setting": "[6]; 5 µM, read-out: Inhibition of Aβ aggregation", "result": 23.5, "unit": "%"}, {"measurement": "inhibition at 10 µM", "setting": "[6]; 10 µM, read-out: Inhibition of Aβ aggregation", "result": 24.3, "unit": "%"}, {"measurement": "inhibition at 25 µM", "setting": "[6]; 25 µM, read-out: Inhibition of Aβ aggregation", "result": 25.8, "unit": "%"}, {"measurement": "inhibition at 50 µM", "setting": "[6]; 50 µM, read-out: Inhibition of Aβ aggregation", "result": 26.7, "unit": "%"}, {"measurement": "Inhibition of Aβ aggregation", "setting": "[6]; 100 µM", "result": 32, "unit": "%"}, {"measurement": "inhibition at 100 µM", "setting": "[6]; 100 µM, read-out: Inhibition of Aβ aggregation", "result": 31.8, "unit": "%"}, {"measurement": "Inhibition of Aβ42 aggregation", "setting": "[6]; at all concentrations (5–100 µM)", "result": "more than 23%"}]}
